Four substances from patent US20060211651A1, “Persulfated oligosaccharide acting on selectins and chemokine” (Taisho Pharmaceutical Co., Ltd., priority 2002, published 2006) can be followed below.

For test [1], the target named is secondary lymphoid tissue chemokine. In words: BIAcore surface plasmon resonance, immobilized glycosaminoglycan vs SLC. In kind it is binding. Conditions: for Kd / koff / kon: GAG immobilized, 25° C. As to the method:
(§1) Affinity kinetics of the interaction between various CS/DS chains and each of L-selectin, P-selectin, CD44 and chemokine were examined by surface plasmon resonance using BIAcore™ biosensor [manufactured by BIAcore AB].
(§2) All experiments were performed at 25° C. At stages of washing and dissociation, buffer C (20 mM HEPES-NaOH, 0.15M NaCl, 1 mM CaCl2, 1 mM MgCl2, pH6.8) was used as a running buffer.
(§3) First, about 1.8 to 2.0 kiloresonance unit (1 kiloresonance unit=1 ng/mm^2) of streptavidin were covalently immobilized onto B1 sensor chip via a primary amine group using an amine coupling kit [manufactured by Amercham-Bioscience] according to the instruction provided by the manufacturer. The remaining activated groups were blocked with 150 μl of 1M ethanolamine-HCl (pH8.5). Then, each glycosaminoglycan which had been biotinylated at a reducing end was injected to a sensor tip surface by using EZ-link™ biotin-LC-hydrazide [manufactured by Pierce] so as to obtain about 150 resonance unit of an immobilization level, according to the method of Sadir et al. [J. Biol. Chem., 276, 8288-8296 (2001); all teachings of which are hereby incorporated by reference].
(§4) Binding assay was performed by injecting continuously each of various concentrations of secondary lymphoid tissue chemokine, γ-interferon inducible protein-10, stromal cell-derived factor-1β, monomeric L-selectin [manufactured by Genzyme-Techne], monomeric P-selectin [manufactured by Genzyme-Techne] and monomeric CD44, to a glycosaminoglycan-coupled sensor tip at a flow rate of 30 μl/min for 0 to 90 seconds, and then injecting a running buffer thereto. A response in resonance unit was recorded as a function of a time.
(§5) A sensor tip surface was regenerated with 300 μl of 1 M NaCl when chemokine or CD44 was used, or regenerated with 300 μl of 1 M NaCl, and additional 100 μl of 50 mM EDTA (pH8.0), when selectin was used. As a result of regeneration of a sensor tip surface, a remarkable change in a baseline was not observed.
(§6) An affinity kinetic parameter was determined by BIAevaluation 3.0 software [manufactured by Pharmacia Biosensor] using a single site binding model. […] In FIG. 6 and Table 3, SLC denotes secondary lymphoid tissue chemokin, IP-10 denotes γ-interferon inducible protein-10, SDF-1β denotes stromal cell-derived factor-1β, CS E denotes chondroitin sulfate E, and CS A denotes chondroitin sulfate A. In addition, in Table 3, Kd value for the interaction between monomeric CD44 and chondroitin sulfate E is a value calculated from a binding amount at equilibrium, and Kd value of the interaction between CD44 and hyaluronic acid is a value calculated using CD44-Ig.
(In general: In SPR one partner is held on a chip, and binding of the other changes the refractive index at the surface.)

For test [2], the target named is T1, γ-interferon inducible protein-10 (Homo sapiens, UniProt P02778). Kind of test: BIAcore surface plasmon resonance, immobilized glycosaminoglycan vs IP-10. It counts as binding. Conditions: for Kd / koff / kon: GAG immobilized, 25° C. As to the method:
as §1, §2, §3, §4, §5, §6

The subject of test [3] is P-selectin-Ig. Kind of test: Binding inhibition assay (ELISA), biotinylated versican to P-selectin-Ig, various concentrations. Conditions: dose-dependent, FIG. 2 panel B. As to the method: Inhibition assay of binding between versican and each of L-selectin, P-selectin and CD44 was performed as follows. First, each well on a 96 well flat bottom microtiter plate (Coster EIA/RIA plate No. 3690) was coated with L-selectin-Ig (3 μg/ml), P-selectin-Ig (4 μg/ml) or CD44-Ig (0.25 μg/ml) by a conventional procedure. […] The plate was incubated at room temperature for 2 hours. Thereafter, the plate was washed with the buffer A, and enzyme-linked immunosorbent assay was performed in the same manner as described in Kawashima, H. et al. [J. Biol. Chem., 275, 35448-35456 (2000)]. Binding was determined by measuring absorbance at 620 nm using alkaline phosphatase-conjugated streptavidin and Blue Phos™ substrate.

For test [4], the target named is T1, γ-interferon inducible protein-10. In words: ELISA, biotinylated versican binding to IP-10 in presence of glycosaminoglycan. The following applies: 100 μg/ml glycosaminoglycan; FIG. 5. As to the method:
(§7) A well of a 96 well flat bottom microtiter plate was coated with BSA (5 μg/ml), anti-versican monoclonal antibody 2B1 (5 μg/ml), CD44-Ig (7 μg/ml), L-selectin-Ig (3 μg/ml), P-selectin-Ig (3 μg/ml) or chemokine (1 μg/ml), and then blocked with a phosphate buffered physiological saline containing 3% by weight of BSA. As the above chemokine, secondary lymphoid tissue chemokine, γ-interferon inducible protein-10, platelet factor 4, stromal cell-derived factor-1β [manufactured by Pepro Tech] and stromal cell-derived factor-1α [manufactured by Pepro Tech] were used.
(§8) Thereafter, the plate was washed with the buffer A, and enzyme-linked immunosorbent assay was performed in the same manner as that of the previous report [Kawashima, H. et al., J. Biol. Chem., 275, 35448-35456 (2000)]. Binding was determined by measuring absorbance at 620 nm using alkaline phosphatase-conjugated streptavidin and Blue Phos™ substrate. In FIG. 5, expression of an abscissa axis is the same as that of FIG. 4.
In general terms: An ELISA detects its analyte on a solid surface through an enzyme-linked reagent.

The target in test [5] is T2, stromal cell-derived factor-1β (Homo sapiens, UniProt P48061).
T2 construct: purchased Pepro Tech
T2 sequence (P48061 22-93): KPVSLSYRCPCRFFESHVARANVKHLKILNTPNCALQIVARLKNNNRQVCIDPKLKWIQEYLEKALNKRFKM
Kind of test: ELISA, biotinylated versican binding to SDF-1β in presence of glycosaminoglycan. Conditions: 100 μg/ml glycosaminoglycan; FIG. 5. As to the method:
as §7, §8

For test [6], the target named is T3, L-selectin-Ig (Homo sapiens, UniProt P14151).
T3 construct: purchased R & D Systems Inc
T3 sequence (P14151 with tags, fused parts or gaps limits assumed): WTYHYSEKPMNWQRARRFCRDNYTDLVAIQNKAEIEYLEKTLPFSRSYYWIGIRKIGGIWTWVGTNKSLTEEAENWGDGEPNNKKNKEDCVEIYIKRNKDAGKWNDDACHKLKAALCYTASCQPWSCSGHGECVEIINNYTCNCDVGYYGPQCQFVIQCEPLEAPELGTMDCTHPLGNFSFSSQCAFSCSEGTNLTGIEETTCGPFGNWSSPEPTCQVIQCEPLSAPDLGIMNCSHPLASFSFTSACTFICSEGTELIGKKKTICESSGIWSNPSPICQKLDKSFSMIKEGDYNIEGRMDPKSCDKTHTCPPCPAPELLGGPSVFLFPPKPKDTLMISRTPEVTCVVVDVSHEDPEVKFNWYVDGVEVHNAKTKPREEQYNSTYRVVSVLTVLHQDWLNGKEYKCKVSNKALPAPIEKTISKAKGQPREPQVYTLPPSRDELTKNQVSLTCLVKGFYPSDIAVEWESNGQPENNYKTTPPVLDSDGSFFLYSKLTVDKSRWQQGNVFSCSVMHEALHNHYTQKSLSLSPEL
Kind of test: ELISA, biotinylated versican binding to L-selectin-Ig in presence of glycosaminoglycan. Conditions: 100 μg/ml glycosaminoglycan; FIG. 5. As to the method: as §7, §8

T1 sequence (P02778 22-98): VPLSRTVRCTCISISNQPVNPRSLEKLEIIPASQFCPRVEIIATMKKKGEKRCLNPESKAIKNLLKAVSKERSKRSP

Broadly, the Kd is the concentration at which binding is half-saturated. One may read the koff as the first-order rate constant of dissociation. Low values mean a long-lived complex, high ones a short-lived complex. As a reminder, the kon is a measure of how fast the partners come together. Low readings indicate slow association, high ones fast association. In test [1], chondroitin polysulfate [CPS] had a Kd of 101 nM, a koff of 0.00244 s⁻¹ and a kon of 24200 M⁻¹ s⁻¹. Moreover, in test [2], the Kd was 73.2 nM, the dissociation rate constant (koff) was determined as 0.0023 s⁻¹ and the association rate constant (kon) was 31500 M⁻¹ s⁻¹. Further, the “inhibition of binding between biotinylated versican and P-selectin-Ig” value in test [3] was “inhibited”. The “inhibition of binding between biotinylated versican and γ-interferon inducible protein-10” value in test [4] is given as “inhibited”. In test [5], the “inhibition of binding between biotinylated versican and stromal cell-derived factor-1β” value was “inhibited”. In test [6], the “inhibition of binding between biotinylated versican and L-selectin” value is “inhibited”.
In the case of chondroitin sulfate A [CS A], the “interaction with immobilized glycosaminoglycan (sensorgram)” value (shortened to “interaction”) in test [1] and in test [2] was “did not interact” each time. In test [3], the “inhibition of binding between biotinylated versican and P-selectin-Ig” value is on record as “not inhibited”.
For chondroitin sulfate E [CS E], in test [1], the “interaction” value is reported as “bound”, the Kd was 85.8 nM, the koff stood at 0.00356 s⁻¹ and the kon stood at 41500 M⁻¹ s⁻¹. In test [2], the “interaction” value is listed as “bound”, binding was characterised by a dissociation constant (Kd) of 130 nM, the koff amounted to 0.00211 s⁻¹ and the kon was determined as 16200 M⁻¹ s⁻¹. In test [3], the “inhibition of binding between biotinylated versican and P-selectin-Ig” value is “inhibited”. Also, in test [4], the “inhibition of binding between biotinylated versican and γ-interferon inducible protein-10” value is on record as “inhibited”. Moreover, the “inhibition of binding between biotinylated versican and stromal cell-derived factor-1β” value in test [5] was “inhibited”. For the same substance, the “inhibition of binding between biotinylated versican and L-selectin” value in test [6] was “inhibited”.
In test [1], dermatan polysulfate [DPS] had a Kd of 32.2 nM, a koff of 0.000278 s⁻¹ and a kon of 8640 M⁻¹ s⁻¹. In test [2], this substance had a Kd of 34.9 nM, a koff of 0.000923 s⁻¹ and a kon of 26400 M⁻¹ s⁻¹. For the same substance, the “inhibition of binding between biotinylated versican and P-selectin-Ig” value in test [3] is on record as “inhibited”. For the same substance, the “inhibition of binding between biotinylated versican and γ-interferon inducible protein-10” value in test [4] is on record as “inhibited”. Moreover, the “inhibition of binding between biotinylated versican and stromal cell-derived factor-1β” value in test [5] was “inhibited”. The “inhibition of binding between biotinylated versican and L-selectin” value in test [6] is on record as “inhibited”.
